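Grown in 96-well plates, cells were treated for 48 hours with each compound at five concentrations. Insufficient inhibition: endpoint recorded as highest concentration tested. GI50: concentration for 50% inhibition of growth. The concentration for full growth arrest is given as TGI.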
Key:
Test in all cases: inhibition of tumour cell growth, NCI panel, 48 h
[1] = test system: 786-0 renal
[2] = test system: HCT-116 colon
[3] = test system: HCT-15 colon
[4] = test system: HOP-92 NSCLC
[5] = test system: IGROV1 ovarian
[6] = test system: MALME-3M melanoma
[7] = test system: RXF 393 renal
[8] = test system: SF-539 CNS
[9] = test system: SK-MEL-2 melanoma
[10] = test system: U251 CNS

| SMILES | GI50 [1] [µM] | TGI [1] [µM] | GI50 [2] [µM] | TGI [2] [µM] | GI50 [3] [µM] | TGI [3] [µM] | GI50 [4] [µM] | TGI [4] [µM] | GI50 [5] [µM] | TGI [5] [µM] | GI50 [6] [µM] | TGI [6] [µM] | GI50 [7] [µM] | TGI [7] [µM] | GI50 [8] [µM] | TGI [8] [µM] | GI50 [9] [µM] | TGI [9] [µM] | GI50 [10] [µM] | TGI [10] [µM] |
| --- | --- | --- | --- | --- | --- | --- | --- | --- | --- | --- | --- | --- | --- | --- | --- | --- | --- | --- | --- | --- |
| COc1cc(OC)c(C(=O)/C=C/c2cccc(C#N)c2)c(OC)c1 | 1.31 | 5.52 | 0.414 | 1.62 | 0.853 | 3.02 | 0.701 | 3.26 | 1.55 | 5.91 | 1.76 | 8.13 | 0.797 | 2.05 | 1.41 | 4.12 | 1.49 | 6.44 | 1.53 | 5.76 |
| OCCn1cnc2c(SCc3ccccc3)ncnc21 |  | > 100 |  | > 100 |  | > 100 |  | > 100 |  | > 100 |  | > 100 |  | > 100 |  | > 100 |  | > 100 |  | > 100 |
| CC1(C)CC2CC(CC(C)(C)C2=O)C1=O |  | > 100 |  | > 100 |  | > 100 |  | > 100 |  | > 100 |  | > 100 |  | > 100 |  | > 100 |  | > 100 |  | > 100 |
| NC(=O)NC12CC3CC(CC(F)(C3)C1)C2 |  | > 100 |  | > 100 |  |  |  | > 100 |  | > 100 |  | > 100 |  | > 100 |  | > 100 |  | > 100 |  | > 100 |
| CCOc1ccc(NC(=O)C(=O)C(C(=O)c2ccc3ccccc3c2)C2OC(=O)c3ccccc32)cc1 (stereo not drawn) |  | 40.5 |  | 35.1 |  | 43.4 |  | 68.3 |  | 52.5 |  | 77.4 |  |  |  | 39 |  | 37.2 |  | 24.4 |
| COc1cc2c(cc1OC)[C@@H](Nc1ccc(F)cc1)C1COC(=O)[C@@H]1C2c1cc(OC)c(O)c(OC)c1 (stereo partly drawn) |  | 2.51 |  | > 100 |  | > 32.1 |  |  |  | > 100 |  | > 88.8 |  | 71.8 |  | 4.26 |  | > 60.9 |  | 4.03 |
| CCc1ccc2c(c1)C(=O)c1c-2n(CCCN=[N+]=[N-])c(=O)c2cc(OC)c(OC)cc12 | 40.6 | > 100 |  |  | > 100 | > 100 | 23.8 | 94.8 | 53.4 | > 100 | > 100 | > 100 | 29.9 | > 100 | 57.2 | > 100 | > 100 | > 100 | 47.1 | > 100 |
| CNC(=O)OCc1c2ccncc2c(C)c2c1[nH]c1ccc(OC)cc12 |  | 0.494 |  | 0.777 |  | > 100 |  | 0.618 |  | 4.56 |  | 1.87 |  |  |  | 0.719 |  | 0.509 |  | 0.893 |
| Nc1ccccc1C#C/C=C\C#Cc1cccc(O)c1 | 3.89 | 15.3 | 2.73 | 12.2 | 2.04 | 13.9 | 11.9 | > 51.2 | 0.646 | 12.3 | 11.3 | > 43.4 | 0.423 | 5.02 | 2.5 | 11.5 |  |  | 4.09 | 17.1 |
| COc1cnc2c(c1)C(=O)c1c-2n(CCCNC2=NCCS2)c(=O)c2cc(Cl)ccc12 | 0.239 | 1.72 | 0.352 | 2.19 | 1.26 | 2.67 |  |  |  |  |  |  | 0.783 | 2.2 | 0.475 | 1.8 | 18.3 | 34.3 | 0.0546 | 1.82 |
| CC1=C(C(=O)N(C)c2ccc(Cl)c(C(=O)OC(C)C)c2)SCCO1 |  | > 100 |  | > 100 |  | > 100 |  | > 100 |  | > 100 |  | > 100 |  |  |  | > 100 |  | > 100 |  | > 100 |
| CC(C)CCNCC(O)Cn1c2ccccc2c2ccccc21 (stereo not drawn) | 13.2 | 27.3 | 9.47 | 24.1 | 11.9 | 26.7 | 2.71 | 18.1 | 14 | 32.1 | 7.17 | 23 | 5.36 | 19.9 | 15.8 | 30.2 |  |  | 10.5 | 23.5 |
| CCCN(CCC)C(=O)C(=O)c1c(N)[nH]n(-c2ccccc2)c1=O |  | > 100 |  | > 100 |  | > 100 |  | > 100 |  | > 100 |  | > 100 |  |  |  | > 100 |  | > 100 |  | > 100 |
| O=C1NOC(c2ccc(O)cc2)(c2ccc(O)cc2)c2ccccc21 | > 100 | > 100 | > 100 | > 100 | > 100 | > 100 | > 100 | > 100 | > 100 | > 100 | > 100 | > 100 | > 100 | > 100 |  |  | > 100 | > 100 | > 100 | > 100 |
| COc1cccc(NC(=O)CC(=O)N2N=C(N3c4ccccc4Sc4ccccc43)CC2c2ccccc2)c1 (stereo not drawn) |  | > 100 |  | > 100 |  | > 100 |  | > 100 |  | > 100 |  | > 100 |  | > 100 |  | > 100 |  |  |  | > 100 |
| O=C(O)c1nc(-c2ccc(Cl)c(Cl)c2)nc2ccc(Cl)cc12 |  | > 100 |  | > 100 |  | > 100 |  |  |  | > 100 |  | > 100 |  | 69.4 |  | > 100 |  | > 100 |  | > 100 |
| COc1ccc(CC2(Cc3ccc(OC)cc3)CCOC2=O)cc1 |  | > 100 |  | > 100 |  |  |  | > 100 |  | > 100 |  | > 100 |  |  |  |  |  | > 100 |  | > 100 |
| Cn1cc(-c2csc(-c3cn(CCCN4CCCCC4)c4ccccc34)n2)c2cccnc21 | 1.53 | 2.93 |  |  | 1.7 | 3.2 | 13.3 | 35.2 | 1.61 | 3.35 | 1.61 | 3.19 | 1.59 | 3.14 | 1.62 | 3.08 | 18.8 | 38.5 | 1.87 | 3.38 |

Source: PubChem BioAssay (NCI)
